Measurements: article PMC12384620, “Hit-to-Lead Studies of Pyrazinylpiperazines against Visceral Leishmaniasis: Pharmacokinetic Profile and In Vivo Efficacy of Potent Compounds against Leishmania infantum” (ACS Pharmacology & Translational Science, 2025)

What was measured:
[1] = test system: THP-1 cells; design: method as in SAR previously reported; conditions: ref SAR previously reported; cited from earlier work
[2] = test system: BALB/c mice; assay: Acute toxicity / maximum tolerated dose in uninfected mice; assay type: in vivo, mouse; conditions: intraperitoneal, accumulated dose 100 mg/kg, 24 h after last dose
Method: The maximum tolerated dose (MTD) of 2 was determined in BALB/c mice. One male and one female specimen, uninfected, 6 weeks old (ideal weight: 20 g), were each administered intraperitoneally an emulsified sample prepared with 70% PBS1X, 20% PEG 400 (Polyethylene glycol 400, Sigma-Aldrich), 0.16% Tween 80 and 10% of 2, with an initial dose of 5 mg/kg of 2. After 2 h, an additional dose of 15 mg/kg was administered (resulting in an accumulated dose (AD) of 20 mg/kg). After another 2 h, a new dose of 30 mg/kg was administered (AD = 50 mg/kg). After a further 2 h, a final dose of 50 mg/kg (AD = 100 mg/kg) was administered.

[3] = test system: L. infantum::tdTomato intracellular amastigotes; assay: Synergism between 2 and Sb^III against intracellular L. infantum amastigotes; assay type: cell-based, Leishmania infantum
Method: Cells derived from the human monocytic strain THP-1 were cultured in complete Rowell Park Memorial Institute (RPMI)-1640 medium (supplemented with 10% fetal bovine serum, 100 U/mL penicillin, and 100 μg/mL streptomycin). Monocytes were differentiated into macrophages by the addition of 20 ng/mL phorbol myristate acetate (PMA). After 72 h, the macrophages (5 × 10^4), in black 96-well microtiter plates (Corning Incorporated, Corning, NY), were infected with Leishmania (Leishmania) infantum (MHOM/BR/1974/PP75) promastigotes expressing red fluorescence protein on the second day of the stationary phase (20 parasites per macrophage) for 4 h. […] To investigate the possibility of synergism between Sb^III and compound 2, […] different concentrations of these drugs were used (1.0, 0.5, 0.2, 0.1, and 0.05 μg/mL), the solutions of Sb^III and 2 being prepared and diluted the day of the assay. The compounds were tested separately and in combination. […] The EC50 values were determined by nonlinear regression using a Variable slope model (log(concentration) vs growth inhibition) with the GraphPadPrism v8.2.0 (CA, USA) software. By normalizing the data as a fractional response, it was possible to perform the calculation using a Bayesian model. The results were compared to each other to determine whether the combination of compounds has a synergistic, antagonistic or additive effect. Controls with uninfected cells, untreated infected cells, infected cells treated with amphotericin B at 0.25 μM (positive control) or DMSO 1% were used. Quadruplicates were run on the same plate, and the experiments were repeated at least once.

[4] = test system: L. infantum promastigotes; assay: Reactive oxygen species production assay (H2DCFDA); assay type: cell-based, Leishmania infantum; conditions: at IC50 against promastigotes, 24 h; standard 100 μM H2O2
Method: The fluorescent dye H2DCFDA was employed to evaluate ROS production. […] After treatment, the parasites were harvested, washed three times with 1 × PBS, and incubated with 10 μM H2DCFDA dye in […] of 1 × PBS in the dark at room temperature for 30 min. Subsequently, the cells were centrifugated, resuspended in ice-cold PBS and kept at 0 °C until reading on a SpectraMax Gemini XPS/EM microplate reader. The median fluorescence intensity (MIF) was measured on a population of at least ten thousand cells and the data was further analyzed using Excel 2021.

[5] = test system: L. infantum promastigotes; assay: Flow cytometric cell cycle analysis (PI); assay type: cell-based, Leishmania infantum; conditions: 24 h, 0.5x, 1x, 2x IC50, PI
Method: Then, the cells were collected, washed twice with 1 × PBS, and fixed in 70% ethanol at 4 °C for 24 h. The fixed parasites were then washed with 1 × PBS and the pellet was treated with 500 μL of RNase A (20 mg/mL) and incubated at 37 °C for 1 h. Subsequently, the parasites were stained with 10 μg/mL propidium iodide (PI) in the dark for 20 min. Cell cycle distribution, determining the percentage of cells in G0, G1, S, and G2/M phases, was analyzed using an Accuri C5 BD flow cytometer. The histograms presented are representative of results obtained from three independent experiments.

[6] = Hepatotoxicity in HepG2 cells (MTS); assay type: cell-based; conditions: human, read-out: CC50 against HepG2 cells
Method: HepG2 cells were seeded at 2 × 10^4 cells/mL in DMEM, the plates were incubated for 24 h (5% CO2, 37 °C) and the compounds and doxorubicin (used as a positive control) were added in serial dilutions. After 72 h incubation, 15 μL of MTS reagent (CellTiter96) was added to each well, and the plates were incubated for 4 h then read using a microplate absorbance reader at 490 nm. Growth inhibition was expressed as a percentage of the absorbance of the negative control wells.

[7] = test system: L. braziliensis DHODH; assay: DHODH inhibition assay (DCIP); assay type: biochemical, Leishmania braziliensis; conditions: 100 μM
Method: The inhibition assay was conducted under the following conditions: 50 mM Tris (pH 8.15), 150 mM KCl, 50 μM DHO, 60 μM DCIP, and 0.1% Triton X-100. 2 was assayed in triplicate at a concentration of 100 μM, using 5% (v/v) DMSO to prepare stock solutions. The reaction was initiated by adding the enzyme, reaching a final enzyme concentration of 165 nM. Enzymatic activity was then measured for 60 s at 610 nm using a microplate reader (SpectraMax Plus 384, Molecular Devices, San Jose, CA, USA) at 25 °C. The uninhibited reaction, containing 5% (v/v) DMSO, was used as a positive control (100% activity).

Row | Compound | CC50 [1] | signs of acute toxicity (MTD determination) [2] | IC50 ([3]; Leishmania infantum, 72 h, read-out: IC50 against intracellular amastigotes of L. infantum) | effect of the combination of 2 and Sb^III (Bayesian model) ([3]; combination of 2 with Sb^III, in vitro against L. infantum) | ROS production [4] | effect on cell cycle progression [5] | CC50 at 72 h [6] | inhibition of DHODH [7]
1 | O=C(c1ccc(O)c(Cl)c1)N1CCN(c2cnccn2)CC1 [Compound 1, (3-Chloro-4-hydroxyphenyl)(4-(pyrazin-2-yl)piperazin-1-yl)methanone] | 542 µM |  |  |  |  |  |  | 
2 | O=C(c1ccc(O)cc1)N1CCN(c2cnccn2)CC1 [Compound 2, (4-Hydroxyphenyl)(4-(pyrazin-2-yl)piperazin-1-yl)methanone] |  | no apparent signs of acute toxicity | 3.1 ± 1.3 µM | antagonistic | comparable to that of the standard H2O2 | G0/G1 phase cell cycle arrest | > 64 µM | less than 25%
